Assay results from PubChem BioAssay AID256 (DTP/NCI, 2004).
Values joined by “and” are separate entries in the source; they are usually repeats but may differ in a detail not shown here. Identical values can stand only once. Inconclusive results and toxic doses are left out. How the source made its calls: active means survival T/C of 150% or more; inactive means T/C below 125% in these data.

System: CD2F1 mice, L1210 leukemia ip, survival T/C
Test: NCI In Vivo Anticancer Drug Screen. Data for tumor model L1210 Leukemia (intraperitoneal) in CD2F1 (CDF1) mice
Conditions: higher = longer survival
How it was run: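 Each value reflects a quotient of treated over vehicle control outcomes in mice with a transplanted tumor.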

[1] = endpoint: mean survival time, dose: 200.0 mg/kg/injection, schedule: Q01DX009 (ip), vehicle: saline with Tween-80
[2] = endpoint: mean survival time, dose: 50.0 mg/kg/injection, schedule: Q01DX009 (ip), vehicle: saline with Tween-80
[3] = endpoint: mean survival time, dose: 100.0 mg/kg/injection, schedule: Q01DX009 (ip), vehicle: saline with Tween-80

Measured: T/C

Nc1ncnc2c1ncn2C1OC(CO)C(O)C1O (stereo not given)
inactive: endpoint: mean survival time, dose: 3.12 mg/kg/injection, schedule: Q01DX009 (ip), vehicle: Klucel (hydroxypropylcellulose) (HPC) 100 % of control | endpoint: mean survival time, dose: 6.25 mg/kg/injection, schedule: Q01DX009 (ip), vehicle: Klucel (hydroxypropylcellulose) (HPC) 100 % of control | endpoint: mean survival time, dose: 12.5 mg/kg/injection, schedule: Q01DX009 (ip), vehicle: Klucel (hydroxypropylcellulose) (HPC) 95 % of control | endpoint: mean survival time, dose: 18.7 mg/kg/injection, schedule: Q01DX009 (ip), vehicle: saline 87 % of control | endpoint: mean survival time, dose: 18.75 mg/kg/injection, schedule: Q01DX009 (ip), vehicle: saline 92 % of control | endpoint: mean survival time, dose: 18.75 mg/kg/injection, schedule: Q04DX003 (ip), vehicle: saline 97 % of control | endpoint: mean survival time, dose: 25.0 mg/kg/injection, schedule: Q01DX009 (ip), vehicle: Klucel (hydroxypropylcellulose) (HPC) 95 % of control | endpoint: mean survival time, dose: 25.0 mg/kg/injection, schedule: Q04DX003 (ip), vehicle: saline 100 % of control | endpoint: mean survival time, dose: 37.5 mg/kg/injection, schedule: Q01DX009 (ip), vehicle: saline 86 % of control and 96 % of control | endpoint: mean survival time, dose: 37.5 mg/kg/injection, schedule: Q04DX003 (ip), vehicle: saline 98 % of control | endpoint: mean survival time, dose: 50.0 mg/kg/injection, schedule: Q04DX003 (ip), vehicle: saline 100 % of control | endpoint: mean survival time, dose: 75.0 mg/kg/injection, schedule: Q01DX009 (ip), vehicle: saline 96 % of control | endpoint: mean survival time, dose: 110.0 mg/kg/injection, schedule: Q03HX024 (ip), vehicle: saline with Tween-80 120 % of control | endpoint: mean survival time, dose: 118.0 mg/kg/injection, schedule: Q01DX005 (ip), vehicle: water 102 % of control | endpoint: mean survival time, dose: 118.0 mg/kg/injection, schedule: Q01DX009 (ip), vehicle: water 104 % of control | endpoint: mean survival time, dose: 150.0 mg/kg/injection, schedule: Q01DX009 (ip), vehicle: saline 96 % of control and 100 % of control | endpoint: mean survival time, dose: 177.0 mg/kg/injection, schedule: Q01DX005 (ip), vehicle: water 99 % of control | endpoint: mean survival time, dose: 177.0 mg/kg/injection, schedule: Q01DX009 (ip), vehicle: water 117 % of control | [1] 117 % of control | endpoint: mean survival time, dose: 200.0 mg/kg/injection, schedule: Q03HX024 (ip), vehicle: saline with Tween-80 124 % of control | endpoint: mean survival time, dose: 266.0 mg/kg/injection, schedule: Q01DX005 (ip), vehicle: water 106 % of control | endpoint: mean survival time, dose: 266.0 mg/kg/injection, schedule: Q01DX009 (ip), vehicle: water 112 % of control | endpoint: mean survival time, dose: 300.0 mg/kg/injection, schedule: Q01DX009 (ip), vehicle: saline with Tween-80 114 % of control | endpoint: mean survival time, dose: 300.0 mg/kg/injection, schedule: Q01DX009 (ip), vehicle: saline 119 % of control and 97 % of control | endpoint: mean survival time, dose: 400.0 mg/kg/injection, schedule: Q01DX005 (ip), vehicle: water 108 % of control | endpoint: mean survival time, dose: 400.0 mg/kg/injection, schedule: Q01DX009 (ip), vehicle: water 112 % of control | endpoint: mean survival time, dose: 450.0 mg/kg/injection, schedule: Q01DX009 (ip), vehicle: saline with Tween-80 114 % of control | endpoint: mean survival time, dose: 600.0 mg/kg/injection, schedule: Q01DX005 (ip), vehicle: water 108 % of control | endpoint: mean survival time, dose: 600.0 mg/kg/injection, schedule: Q01DX009 (ip), vehicle: saline 105 % of control | endpoint: mean survival time, dose: 600.0 mg/kg/injection, schedule: Q01DX009 (ip), vehicle: water 114 % of control | endpoint: mean survival time, dose: 900.0 mg/kg/injection, schedule: Q01DX005 (ip), vehicle: water 113 % of control | endpoint: mean survival time, dose: 900.0 mg/kg/injection, schedule: Q01DX009 (ip), vehicle: water 109 % of control | endpoint: median survival time, dose: 1.56 mg/kg/injection, schedule: Q01DX009 (ip), vehicle: saline 111 % of control | endpoint: median survival time, dose: 3.12 mg/kg/injection, schedule: Q01DX009 (ip), vehicle: saline 109 % of control | endpoint: median survival time, dose: 6.25 mg/kg/injection, schedule: Q01DX009 (ip), vehicle: saline 110 % of control | endpoint: median survival time, dose: 11.25 mg/kg/injection, schedule: Q03HX012 (ip), vehicle: saline 112 % of control | endpoint: median survival time, dose: 12.5 mg/kg/injection, schedule: Q01DX009 (ip), vehicle: saline 108 % of control | endpoint: median survival time, dose: 22.5 mg/kg/injection, schedule: Q03HX012 (ip), vehicle: saline 107 % of control | endpoint: median survival time, dose: 25.0 mg/kg/injection, schedule: Q01DX009 (ip), vehicle: saline 115 % of control | endpoint: median survival time, dose: 45.0 mg/kg/injection, schedule: Q03HX012 (ip), vehicle: saline 112 % of control | endpoint: median survival time, dose: 50.0 mg/kg/injection, schedule: Q01DX009 (ip), vehicle: saline 79 % of control | endpoint: median survival time, dose: 90.0 mg/kg/injection, schedule: Q03HX012 (ip), vehicle: saline 116 % of control | endpoint: median survival time, dose: 180.0 mg/kg/injection, schedule: Q03HX012 (ip), vehicle: saline 122 % of control

COc1ccc(C(Cn2ccnc2)Sc2ccc(Cl)c(Cl)c2)cc1 (stereo not given)
inactive: endpoint: mean survival time, dose: 6.25 mg/kg/injection, schedule: Q01DX009 (ip), vehicle: saline with Tween-80 96 % of control and 103 % of control | endpoint: mean survival time, dose: 12.5 mg/kg/injection, schedule: Q01DX009 (ip), vehicle: saline with Tween-80 103 % of control and 104 % of control | endpoint: mean survival time, dose: 25.0 mg/kg/injection, schedule: Q01DX009 (ip), vehicle: saline with Tween-80 98 % of control and 101 % of control | [2] 96 % of control and 108 % of control | [3] 101 % of control and 105 % of control

COc1cc(/C=N/NC(=O)CNC(=O)NCc2ccco2)ccc1O
inactive: [2] 92 % of control | [3] 92 % of control | [1] 92 % of control

CN(C)NC(=O)/C=C\C(=O)O
inactive: endpoint: mean survival time, dose: 100.0 mg/kg/injection, schedule: Q01DX009 (ip), vehicle: saline 101 % of control | endpoint: mean survival time, dose: 200.0 mg/kg/injection, schedule: Q01DX009 (ip), vehicle: saline 101 % of control

Cc1c2cnccc2c(C)c2c1c1ccccc1n2CCNCCO
inactive: endpoint: mean survival time, dose: 50.0 mg/kg/injection, schedule: Q01DX009 (ip), vehicle: saline sonified 113 % of control | endpoint: mean survival time, dose: 100.0 mg/kg/injection, schedule: Q01DX009 (ip), vehicle: saline sonified 87 % of control

CCC(=O)NC(=O)C(=O)NC(=O)CC
inactive: endpoint: mean survival time, dose: 25.0 mg/kg/injection, schedule: Q04DX002 (ip), vehicle: saline with Tween-80 102 % of control | endpoint: mean survival time, dose: 50.0 mg/kg/injection, schedule: Q04DX002 (ip), vehicle: saline with Tween-80 95 % of control | endpoint: mean survival time, dose: 100.0 mg/kg/injection, schedule: Q04DX002 (ip), vehicle: saline with Tween-80 91 % of control | endpoint: mean survival time, dose: 200.0 mg/kg/injection, schedule: Q04DX002 (ip), vehicle: saline with Tween-80 109 % of control

ClCc1ccc2ccccc2n1
inactive: [3] 109 % of control | endpoint: mean survival time, dose: 100.0 mg/kg/injection, schedule: Q04DX003 (ip), vehicle: saline with Tween-80 104 % of control | [1] 104 % of control | endpoint: mean survival time, dose: 200.0 mg/kg/injection, schedule: Q04DX003 (ip), vehicle: saline with Tween-80 104 % of control | endpoint: mean survival time, dose: 400.0 mg/kg/injection, schedule: Q04DX003 (ip), vehicle: saline with Tween-80 101 % of control

CC(O)C1=CC(c2ccccc2)(c2ccccc2)c2ccccc21 (stereo not given)
inactive: endpoint: mean survival time, dose: 100.0 mg/kg/injection, schedule: Q01DX001 (ip), vehicle: saline with Tween-80 95 % of control | endpoint: mean survival time, dose: 200.0 mg/kg/injection, schedule: Q01DX001 (ip), vehicle: saline with Tween-80 91 % of control | endpoint: mean survival time, dose: 400.0 mg/kg/injection, schedule: Q01DX001 (ip), vehicle: saline with Tween-80 88 % of control

[CH3][Sn]1([CH3])[O]C2C(CO)OC(n3ccc(N)nc3=O)C2[O]1 (stereo not given)
inactive: endpoint: mean survival time, dose: 12.5 mg/kg/injection, schedule: Q01DX005 (ip), vehicle: other 103 % of control | endpoint: mean survival time, dose: 25.0 mg/kg/injection, schedule: Q01DX005 (ip), vehicle: other 92 % of control | endpoint: mean survival time, dose: 50.0 mg/kg/injection, schedule: Q01DX005 (ip), vehicle: other 106 % of control

CCOC(=O)CCCCCSc1n[nH]c(=O)[nH]c1=O
inactive: endpoint: mean survival time, dose: 12.5 mg/kg/injection, schedule: Q01DX005 (ip), vehicle: distilled water + Tween-80 102 % of control | endpoint: mean survival time, dose: 25.0 mg/kg/injection, schedule: Q01DX005 (ip), vehicle: distilled water + Tween-80 103 % of control | endpoint: mean survival time, dose: 50.0 mg/kg/injection, schedule: Q01DX005 (ip), vehicle: distilled water + Tween-80 92 % of control | endpoint: mean survival time, dose: 100.0 mg/kg/injection, schedule: Q01DX005 (ip), vehicle: distilled water + Tween-80 102 % of control | endpoint: mean survival time, dose: 200.0 mg/kg/injection, schedule: Q01DX005 (ip), vehicle: distilled water + Tween-80 102 % of control
